# Reference: US20170165266A1 (Celgene Corporation, priority 2010, published 2017)
# Where a name gives a salt, the structure may show the parent alone.
# Assays:
# [1] = tested on: anti-CD3-stimulated human T cells; test: Cytokine and chemokine production in anti-human CD3-stimulated human T cells (Luminex); assay type: cell-based; conditions: 48 hours
# Procedure: (§1) The test compounds were prepared as stock solutions of 4 mM in DMSO. T cells were isolated from buffy coat by negative selection using the RosetteSep® T Cell Enrichment Cocktail according to manufacturer's procedures. All 96-well plates were pre-coated with 3 μg/mL anti-human CD3 antibody in 100 μL 1× PBS for 4 hours at 37° C. The plates were washed 3 times with RPMI-1640 Complete Media prior to the T cell assay. The T cells were then plated in anti-CD3-pre-coated plates at a density of 2.5×10^5 cells/well in 180 μL RPMI-1640 Complete Media. […] The final DMSO concentrations were 0.25%. The plates were incubated for 48 hours at 37° C., 5% CO2. After 48 hours, the supernatants were harvested and tested by a multiplex cytometric bead array (CBA) assay for the following cytokines/chemokines: IL-2, IL-3, IL-5, IL-10, IL-13, IL-15, IL-17A, GM-CSF, G-CSF, IFN-γ, TNF-α, and RANTES. The CBA plates were analyzed on the Luminex IS100 instrument. Data from each donor was graphed using GraphPad Prism 5.0 software and expressed as mean pg/mL±SEM and % of DMSO control±SEM.
# IL-5 = IL-5 production in anti-human CD3-stimulated human T cells; assay type: cell-based; conditions: 48 hours
# Procedure: as §1
# IL-10 [2] = test: IL-10 production in anti-human CD3-stimulated human T cells; assay type: cell-based
# Procedure: as §1
# IL-8 = IL-8 production in LPS-stimulated hPBMC (Luminex); assay type: cell-based; conditions: Homo sapiens; LPS 1 ng/ml, 18 hours
# Procedure: (§2) 50 ml human buffy coat was aliquoted 25 ml each into two 50 ml conical tubes and 25 ml sterile HBSS was added to each conical tube. The tubes were gently mixed by inverting. Fifteen ml of room temperature Ficoll-Paque Plus (GE Healthcare (location); cat #17-1440-02) was aliquoted into four 50 ml conical tubes. Then 25 ml of the Buffy coat/HBSS mixture was layered gently and slowly on top of the Ficoll. The samples were centrifuged at 450 rpm for 35 minutes. The top layered containing plasma was pipetted off and discarded. The interface containing mononuclear cells was transferred into two 50 ml conical tubes. Both conical tubes were filled to total volume of 50 ml with HBSS and centrifuged at 1200 rpm for 10 minutes. The cells were washed again in HBSS and spun at 1000 rpm for 10 minutes. Cell pellet was resuspended with 20 ml RPMI complete medium (RPMI/5% human sera/1× pen/strep/glut) and counted.
# (§3) One hundred μl (2×10^6/ml) of hPBMCs were added to each well of a 96 well flat-bottom plate (final cell count=2×10^5/well) and incubated at 37° C. for 1 hour. […]
# (§4) Supernatant samples were analyzed for cytokines in multiplex format according to the manufacturer's instructions (Millipore, Billerica, Mass. 01821) using a Luminex IS100 instrument. […]
# IL-1β = IL-1β production in LPS-stimulated hPBMC (Luminex); assay type: cell-based; conditions: Homo sapiens; LPS 1 ng/ml, 18 hours
# Procedure: as §2, §3, §4
# MIP-1β = MIP-1β production in LPS-stimulated hPBMC (Luminex); assay type: cell-based; conditions: Homo sapiens; LPS 1 ng/ml, 18 hours
# Procedure: as §2, §3, §4
# TNF-α = TNF-α production in LPS-stimulated hPBMC (Luminex); assay type: cell-based; conditions: Homo sapiens; LPS 1 ng/ml, 18 hours
# Procedure: as §2, §3, §4
# NK cell IFN-γ production = test: NK IgG-induced interferon-gamma (IFN-gamma) assay; assay type: cell-based, human
# Procedure: NK cells from healthy donors were isolated from buffy coat blood by negative selection using the RosetteSep NK cell enrichment cocktail (Stem Cell Technologies, Vancouver, BC) prior to Ficoll-Hypaque (Fisher Scientific Co LLC, PA) density gradient centrifugation following the manufacturers' instructions. CD56+ NK cells were isolated to ˜85% purity, as determined by flow cytometry (BD Biosciences, CA). Ninety-six-well flat-bottom plates were coated with 100 μg/mL of human IgG (Sigma) overnight at 4° C. The next day, unbound IgG was washed away with cold 1× PBS. NK cells were then plated in the IgG-coated 96-well plates at 2×10^5 cells per well in 180 μL RPMI-1640 Media and 10 ng/mL of rhIL-2 (R & D Systems, MN) was added. […] Final DMSO concentrations were 0.25%. After 48 hours, the supernatants were harvested and analyzed by ELISA for IFN-γ production. […] The data are presented in two ways, (1) as the absolute amount if IFN-γ produced (pg/mL±SEM) and (2) as the percentage of the amount of IFN-γ produced in the presence of 1 μM pomalidomide.
# [3] = tested on: Rituximab coated lymphoma cells (WSU-DLCL2, Farage, DoHH2, Riva, Raji); test: ADCC assay: NK cell-mediated ADCC (LDH release); assay type: cell-based, human; conditions: 0.01 to 10 μM, 48 hours pretreatment, effector:target 10:1
# Text: NK cells from healthy donors were isolated from buffy coat blood by negative selection using the RosetteSep NK cell enrichment cocktail (Stem Cell Technologies, Vancouver, BC) prior to Ficoll-Hypaque (Fisher Scientific Co LLC, PA) density gradient centrifugation following the manufacturers' instructions. CD56+ NK cells were isolated to ˜85% purity, as determined by flow cytometry (BD Biosciences, CA). […] Various lymphoma cell lines (GCB-DLBCL: WSU-DLCL2 and Farage; Follicular lymphoma:DoHH2; ABC-DLBCL: Riva; Burkitt's lymphoma [BL]: Raji) were treated with 5 μg/mL rituximab for 30 minutes at 37° C. Unbound rituximab was washed off, target cells (5×103/100 μL/well) were added to the pretreated effector cells (NK cells) at a 10:1 ratio, and the two were co-incubated for 4 hours at 37° C. […] Using an aliquot of supernatant (50 μL), NK cell cytotoxicity against tumor cells was analyzed using a standard lactate dehydrogenease (LDH) release assay to measure ADCC (CytoTox 96 Non-Radioactive Cytoxicity Assay, Promega, WI). Spontaneous release by target cells alone was <15% of the maximum release, as determined with target cells lysed in 1% Triton X-100. […] The percentage of specific lysis was calculated according to the formula: Percentage specific lysis=100×(experimental−effector spontaneous−target spontaneous)/(target maximum−target spontaneous).
# IgG production = IgG production in B cell differentiation assay (ELISA); assay type: cell-based; conditions: Homo sapiens
# Procedure: (§5) Step 1—B cell Activation—day 0 through day 4: Prepare fresh B cell cocktail by adding 50 μg/mL of human transferrin to B cell media. (Iscoves +10% PFBS, 1% P/S, and 5 μg/mL human insulin). Filter required volume of media needed for experiment through a […] filter. Add B cell differentiation cocktail (final concentration): recombinant human IL-2 (20 U/mL), IL-10 (50 ng/mL), IL-15 (10 ng/mL), CD40 Ligand/TNFSFS/histidine-tagged (50 ng/mL), polyHistidine mouse IgG1 antibody (5 μg/mL), and ODN 2006-Human TLR9 ligand (10 μg/mL) to cells. Five milliliters (1×10^5/ml) of CD19+ B cell were added to each well of a 6 well flat-bottom plate (final cell count=5×10^5/well). Five μL (1×)±compound/DMSO was added to each test well (0.1% final DMSO) and incubated at 37° C. for 4 days.
# (§6) Step 2—Plasmablast Generation—day 4 through day 7: Cells were harvested and counted on the cell counter; an aliquot was removed for flow analysis, the remaining cells were washed with PBS. […]
# (§7) On day 7, cells were harvested and counted on the cell counter. […]
# (§8) Supernatants (from section 8.4.3) were harvested and analyzed by ELISA for IgG and IgM production (ZeptoMetrix Corp. Buffalo, N.Y.).
# (§9) The data was graphed using GraphPad Prism 5.0 software. […] The results for test compounds in the Ig assays were expressed as the percentage inhibition relative to control DMSO values.
# IgM production = IgM production in B cell differentiation assay (ELISA); assay type: cell-based; conditions: Homo sapiens
# Procedure: as §5, §6, §7, §8, §9
# [4] = tested on: bleomycin induced dermal fibrosis; test: Bleomycin induced dermal fibrosis mouse model, prevention of fibrosis; assay type: in vivo, DBA/2 mice; conditions: 30 mg/kg, PO, QD, p<0.0001
# Procedure: Bleomycin was obtained from the pharmacy of the University of Erlangen-Nuremberg and freshly prepared once a week. Skin fibrosis was induced in 6-week-old DBA mice by local intracutaneous injections of 100 μl of bleomycin dissolved in 0.9% NaCl, at a concentration of 0.5 mg/ml, every other day in defined areas of 1.5 cm2 on the upper back.
# In this model, a localized dermal fibrosis is induced by intradermal injections with bleomycin every other day for 3 weeks. […] To evaluate potential effects on prevention of fibrosis, treatment was initiated simultaneously with the first bleomycin injection. […]
# Dermal thickness was determined by staining with hematoxylin and eosin and activated fibroblasts by using immunohistochemistry for alpha smooth mucle actin (α-SMA). […] Dermal thickness was analyzed with a Nikon Eclipse 80i microscope (Nikon, Badhoevedorp, The Netherlands) by measuring the maximal distance between the epidermal-dermal junction and the dermal-subcutaneous fat junction at 4 different skin sections in each mouse. […]
# For quantification of myofibroblasts, skin sections were deparaffinized and incubated with 5% bovine serum albumin for 60 minutes. Cells positive for α-SMA were detected by incubation with monoclonal anti-α-SMA antibodies (clone 1A4; Sigma-Aldrich, Steinheim, Germany) for 2 hours at room temperature followed by incubation with 3% hydrogen peroxide for 10 minutes. […]
# [5] = tested on: bleomycin induced dermal fibrosis; test: Modified bleomycin induced dermal fibrosis mouse model, regression of established fibrosis; assay type: in vivo, DBA/2 mice; conditions: 30 mg/kg, PO, QD, p<0.0001
# Procedure: Skin fibrosis was induced in 6-week-old DBA mice by local intracutaneous injections of 100 μl of bleomycin dissolved in 0.9% NaCl, at a concentration of 0.5 mg/ml, every other day in defined areas of 1.5 cm2 on the upper back.
# Dermal thickness was determined by staining with hematoxylin and eosin and activated fibroblasts by using immunohistochemistry for alpha smooth mucle actin (α-SMA). […] Skin sections were stained with hematoxylin/eosin for better visualization of the tissue structure. Dermal thickness was analyzed with a Nikon Eclipse 80i microscope (Nikon, Badhoevedorp, The Netherlands) by measuring the maximal distance between the epidermal-dermal junction and the dermal-subcutaneous fat junction at 4 different skin sections in each mouse. The evaluation was performed by 2 independent examiners.
# IL-10 [6] = test: IL-10 production in LPS-stimulated hPBMC (Luminex); assay type: cell-based, human; conditions: at 10 μM; used as upper constraint for EC50s
# Procedure: as §2, §3, §4
# [7] = tested on: bleomycin induced dermal fibrosis; conditions: previously shown, Akhmetshina et al. 2009; cited from earlier work
compound,measurement,setting,value
"Cc1nc2cccc(N)c2c(=O)n1C1CCC(=O)NC1=O (stereo not drawn) [test compound, 3-(5-amino-2-methyl-4-oxoquinazolin-3(4H)-yl)piperidine-2,6-dione]","IL-2, IL-3, IL-5, IL-10, IL-13, GM-CSF, IFN-γ, RANTES, and TNF-α production in stimulated human T cells",[1],enhanced
same,increase of IL-5 production,IL-5; 0.01 μM,3 fold
same,increase of IL-5 production,IL-5; 0.1 μM,4 fold
same,IL-10 production,IL-10 [2]; at higher concentrations,inhibited enhancement of IL-10 production
same,IL-10 production,IL-10 [2]; at lower concentrations,enhanced IL-10 production
same,IC50,IL-8,> 10000 nM
same,IC50,IL-1β,54 nM
same,IC50,MIP-1β,> 10000 nM
same,IC50,TNF-α,34 nM
same,EC50,"NK cell IFN-γ production; Homo sapiens, immobilized IgG and rhIL-2, 48 hours, maximal = IFN-γ produced with 1 μM pomalidomide, read-out: EC50, half-maximal IFN-γ production",1.5 nM
same,NK cell IFN-γ production,NK cell IFN-γ production; immobilized IgG and IL-2 stimulation,enhanced
same,NK cell-mediated ADCC,[3],induced dose-dependent NK cell-mediated ADCC in all cell lines
same,IC50,IgG production; Normal (n = 3),61 nM
same,IC50,IgG production; SLE (n = 3),46 nM
same,IC50,IgM production; Normal (n = 3),23 nM
same,IC50,IgM production; SLE (n = 3),30 nM
same,prevention of dermal thickening,[4]; three weeks,approximately 22±0.49%
same,reduction of number of α-SMA+ myofibroblasts in lesional skin,[4],30±0.23%
same,reduction of bleomycin induced dermal thickening,[5],22±0.28%
Nc1cccc2c1C(=O)N(C1CCC(=O)NC1=O)C2=O (stereo not drawn) [pomalidomide],average IL-10 enhancement,IL-10 [6],246.9%
Cc1ccc(NC(=O)c2ccc(CN3CCN(C)CC3)cc2)cc1Nc1nccc(-c2cccnc2)n1 [Imatinib mesylate],anti-fibrotic effects in bleomycin induced dermal fibrosis,[7],potent anti-fibrotic effects
